# Patent publication US20090054403A1, “Treatment of Post-Traumatic Stress Disorder” (priority 2007, published 2009)
# Tests used:
# [1] = system: β-adrenergic receptor; experiment: Left ventricular [3H]CGP-12177 saturation binding after treatment; parameters: species or system beagle dogs; details: 10 mg/kg/day
# Protocol: Ventricles were homogenized in 50 mM Tris-HCl, 5 mM Na2EDTA buffer (pH 7.4 at 4° C.) using a Polytron P-10 tissue disrupter (setting 10, 2×15 second bursts). Homogenates were centrifuged at 500×g for 10 minutes and the supernatants stored on ice. The pellets were washed by resuspension and centrifugation at 500×g and the supernatants combined. The combined supernatants were centrifuged at 48,000×g for 20 minutes. The pellets were washed by resuspension and centrifugation once in homogenizing buffer and twice in 50 mM Tris-HCl, 0.5 mM EDTA buffer (pH 7.4 at 4° C.). Membranes were stored at −70° C. until required. Saturation experiments were conducted using [^3H] CGP-12177 in buffer containing 50 mM Tris-HCl, 0.5 mM EDTA (pH 7.4 at 32° C.). Non-specific binding was defined by 10 uM isoproterenol. Total bound, non-specific bound and total count tubes were set up for eight concentrations of [^3H] […] Aquasol scintillation fluid was added to each vial and radioactivity determined by liquid scintillation counting. Saturation binding isotherms were analyzed after first converting total ligand concentrations to free ligand concentrations (total−bound=free). […] Tissue catecholamine levels were analyzed by comparing nepicastat-treated groups with the placebo (control) treated groups. […] Additionally, a linear orthogonal contrast was calculated for all three doses within the context of a one-way ANOVA. […]
# [2] = system: sympathetically-evoked functional responses; experiment: Sympathetically-evoked functional responses in anesthetized dogs; assay type: in vivo, beagle dogs
# [3] = molecular target: T1, bovine DBH (Bos taurus, UniProt P15101); experiment: Bovine DBH inhibition kinetics, [14C]tyramine radioactive method; assay type: biochemical
# T1 construct: Bovine DBH from adrenal glands was obtained from Sigma Chemicals; purchased Sigma Chemicals (St Louis, Mo.); host or cells: bovine adrenal glands
# T1 sequence (P15101 whole entry): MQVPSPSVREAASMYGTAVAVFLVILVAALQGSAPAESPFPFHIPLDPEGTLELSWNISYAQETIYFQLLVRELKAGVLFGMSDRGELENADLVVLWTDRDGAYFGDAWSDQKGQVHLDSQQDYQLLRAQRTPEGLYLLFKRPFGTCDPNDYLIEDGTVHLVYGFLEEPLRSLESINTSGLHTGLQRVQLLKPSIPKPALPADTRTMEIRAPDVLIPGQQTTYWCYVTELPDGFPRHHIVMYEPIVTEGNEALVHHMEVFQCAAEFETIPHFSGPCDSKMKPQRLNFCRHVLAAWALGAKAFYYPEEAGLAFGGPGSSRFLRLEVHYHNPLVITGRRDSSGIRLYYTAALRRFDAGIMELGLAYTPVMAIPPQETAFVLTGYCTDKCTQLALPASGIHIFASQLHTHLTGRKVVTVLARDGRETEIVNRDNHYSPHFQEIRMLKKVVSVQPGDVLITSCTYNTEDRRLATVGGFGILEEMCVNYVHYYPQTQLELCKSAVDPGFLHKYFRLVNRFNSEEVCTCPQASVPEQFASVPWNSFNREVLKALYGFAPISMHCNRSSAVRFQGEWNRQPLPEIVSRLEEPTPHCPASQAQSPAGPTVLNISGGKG
# Protocol: Enzyme Assay by Radioactive Method. Enzymatic activity was assayed using [^14C]tyramine as substrate and a C18 column to separate the product. The assay was performed in […] volume containing 100 mM NaAc, pH 5.2, 10 mM fumaric acid, 0.5 μM CuSO4, 4 mM ascorbic acid, 0.1 mg/ml catalase and various concentrations of tyramine. The total counts of each reaction was ˜15,000 cpm. Bovine DBH (0.18 ng for each reaction) was mixed with tyramine and inhibitor in the reaction buffer at 37° C. The reaction was initiated by the addition of ascorbate/catalase mixture and was incubated at 37° C. for 30 minutes. The reaction was stopped by the addition of […] of 25 mM EDTA, 50 mM KH2PO4, pH 2.3. Entire mixture was loaded to a C18 light load column (two combined into one) that was pre-washed with MeOH and equilibrated with 50 mM KH2PO4, pH 2.3. Elution into scintillation vials was carried out with 1 ml of KH2PO4, pH 2.3 buffer twice, followed by 2 ml of the same buffer. ReadySafe scintillation fluid (16 ml) was added to the scintillation vials and the samples were counted for ^14C radioactivity.
# Nepicastat concentrations of 0, 1, 2, 4, 8 nM were used to study inhibition kinetics at the following tyramine concentrations: 0.5, 1, 2, 3, 4 mM. […] Km′ was calculated from the slopes and Y intercepts and linear regression was used to obtain Ki value.
# [4] = system: dopamine and norepinephrine levels; experiment: 24 hour time course of tissue catecholamines in SHR after a single oral dose; assay type: in vivo, spontaneously hypertensive rats
# Protocol: The purpose of this study was to determine the 24 hours time course of the effects of nepicastat (10 mg/kg) on dopamine and norepinephrine levels in the mesenteric artery following a single oral dose in spontaneously hypertensive rats. Catecholamine levels were measured at 1, 2, 4, 6, 8, 12, 16, and 24 hours after a single oral administration of either nepicastat (10 mg/kg) or vehicle (dH2O; 10 ml/kg).
# Sixteen-17 week old, male spontaneous hypertensive rats (SHR) rats weighing 300-400 grams were allowed food and water ad libitum. Animals were weighed and randomly assigned, the afternoon before the study, to one of the following treatment groups (n=9 per group): […] of vehicle (10 ml/kg) to be sacrificed at 1, 2, 4, 6, 8, 12, 16, or 24 hours. nepicastat was synthesized as the hydrochloride salt by the Institute of Organic Chemistry, Syntex Discovery Research and obtained from Syntex Central Compound Inventory. nepicastat was dissolved in vehicle (dH2O) to yield an oral dose that could be administered in repeated volumes of 10 ml/kg. All doses of nepicastat were administered as free base equivalents and prepared the morning of administration. Animals were dosed every […] the morning of sacrifice. At 1, 2, 4, 6, 8, 12, 16 and 24 hours following administration, 9 treated animals and 9 vehicle animals were anesthetized with halothane, decapitated, and the left ventricle and mesenteric artery were rapidly harvested and weighed. The mesenteric artery was put in 0.5 ml of 0.4M perchloric acid in a centrifuge tube and the left ventricle put into an empty cryotube. Both tissues were immediately frozen in liquid nitrogen and stored at −70° C. Mesenteric artery catecholamine levels were determined using HPLC with electrochemical detection. At the time of decapitation, plasma samples were taken by draining blood from the carcass into a tube containing heparin, and centrifuging at 4° C.
# Each treatment group was compared to vehicle at each time point. A two way analysis of variance (ANOVA) with effects TRT, HARVEST and their interaction was performed. A one way ANOVA with factor TRT was performed for each harvest time.
structure (smiles),measurement,setting,value
"Cl.NCc1c[nH]c(=S)n1[C@H]1CCc2c(F)cc(F)cc2C1 [nepicastat, (S)-5-Aminomethyl-1-(5,7-difluoro-1,2,3,4-tetrahydronaphth-2-yl)-2,3-dihydro-2-thioxo-1H-imidazole hydrochloride]","β-adrenergic receptor binding, treated vs vehicle left ventricular samples",[1],no difference
same,heart rate response to i.v. tyramine challenge,[2]; 10 mg/kg/d for 4.5 days,significantly reduced the increase in heart rate
same,inhibition of responses to renal nerve stimulation and carotid artery occlusion,"[2]; 30 mg/kg intraduodenally, up to 5 hours",did not significantly inhibit
same,type of inhibition,"[3]; nepicastat 1-8 nM, tyramine 0.5-4 mM",competitive with tyramine
same,Ki,"[3]; vs tyramine, linear regression of apparent Km",4.7 ± 0.4 nM
same,duration of increase in dopamine/norepinephrine ratio,"[4]; 10 mg/kg oral, mesenteric artery",12 h
same,"dopamine vs vehicle, mesenteric artery","[4]; 10 mg/kg single oral, 1-24 h",significantly (p<0.05) higher than those of vehicle at the 2 and 6 hr harvest times
same,"dopamine/norepinephrine ratio vs vehicle, mesenteric artery","[4]; 10 mg/kg single oral, 1-24 h","significantly (p<0.05) greater than those of vehicle treated animals at the 1, 2, 4, 6 and 12 hour time points"
same,"norepinephrine vs vehicle, mesenteric artery","[4]; 10 mg/kg single oral, 1-24 h",significantly (p<0.05) lower than vehicle only at the 4 hr time point
same,duration of increase in dopamine/norepinephrine ratio,"[4]; 30 mg/kg oral, left ventricle",24 h
